Several values for one entry are separate records, joined by “and”; a condition that tells them apart may be missing. Equal entries are not always repeated. Where two headings read alike, the source gives them in different places.
How the values were obtained:
Wheat [1] = settings: in vivo
soybean = settings: in vivo
cotton = settings: in vivo
Capsella bursa-pastoris = test: whole plant or invertebrate; format: in vivo; settings: 600 h, read-out: weed clearing activity, Capsella bursa-pastoris Postemergence
rape [2] = test: whole plant or invertebrate; format: in vivo; settings: for plant injury at 10 µg/g / plant injury at 100 µg/g: 120 h
rice = settings: in vivo
corn = settings: in vivo
[3] = test system: weeds of the expanded weed killing spectrum; settings: in vivo
Eclipta prostrata = test: whole plant or invertebrate; format: in vivo
Amaranthus retroflexus = test: whole plant or invertebrate; format: in vivo
rape [4] = settings: in vivo
cockspur grass = test: whole plant or invertebrate; format: in vivo; settings: Echinochloa crus-galli; for pest or weed control at 10 µg/g / pest or weed control at 100 µg/g: 120 h
Sorghum = test: whole plant or invertebrate; format: in vivo
Wheat [5] = test: whole plant or invertebrate; format: in vivo; settings: Triticum aestivum
Cucumber = test: whole plant or invertebrate; format: in vivo; settings: Cucumis sativus
Radish = test: whole plant or invertebrate; format: in vivo; settings: Raphanus sativus
Abutilon theophrasti = test: whole plant or invertebrate; format: in vivo; settings: for pest or weed control at 150 g/ha: Abutilon theophrasti, 600 h, read-out: Postemergence weed clearing activity, Abutilon theophrasti
[6] = read-out: weed clearing activity, rape Root (Effect)
[7] = read-out: weed clearing activity, rape Stem (Effect)
[8] = Eclipta prostrata, 600 h, read-out: weed clearing activity, Eclipta prostrata Postemergence
[9] = Amaranthus retroflexus, 600 h, read-out: weed clearing activity, Amaranthus retroflexus Postemergence
[10] = read-out: weed clearing activity, cockspur grass Root (Effect)
[11] = read-out: weed clearing activity, cockspur grass Stem (Effect)
[12] = read-out: inhibitory activity, Sorghum Root
[13] = read-out: inhibitory activity, Sorghum Stem
[14] = read-out: inhibitory activity, Wheat Root
[15] = read-out: inhibitory activity, Wheat Stem
[16] = read-out: inhibitory activity, Cucumber Root
[17] = read-out: inhibitory activity, Cucumber Stem
[18] = read-out: inhibitory activity, Rape Root
[19] = read-out: inhibitory activity, Rape Stem
[20] = read-out: inhibitory activity, Radish Root
[21] = read-out: inhibitory activity, Radish Stem
[22] = read-out: inhibitory activity, Cockspur grass Root
[23] = read-out: inhibitory activity, Cockspur grass Stem

With `CC(OC(=O)COc1ccc(Cl)cc1Cl)P1(=O)OCC(C)(C)CO1` (stereo not drawn) [Compound 11, 2-(2,4-dichlorophenoxyethylacyloxy)(methyl)methyl-5,5-dimethyl-1,3,2-dioxaphosphorinan-2-one phosphonate] the “Inhibitory activity on the crops, Wheat” value (Wheat [1]) was 0, the “Inhibitory activity on the crops, Soybean” value (soybean) was 30 and the “Inhibitory activity on the crops, Cotton” value (cotton) was 30. The pest or weed control at 37.5 g/ha (Capsella bursa-pastoris) was 90%, the pest or weed control at 75 g/ha (Capsella bursa-pastoris) was 100% and the pest or weed control at 150 g/ha (Capsella bursa-pastoris) was 100%. The plant injury at 10 µg/g (rape [2]; [6]) was 99%, the plant injury at 100 µg/g (rape [2]; [6]) was 99% and the plant injury at 10 µg/g (rape [2]; [7]) was 88%. For the same compound, the plant injury at 100 µg/g (rape [2]; [7]) was 92%, the “Inhibitory activity on the crops, Rice” value (rice) was 10 and the “Inhibitory activity on the crops, Corn” value (corn) was 0. The “Activity of expanded weed killing spectrum, Abutilon theophrasti” value [3] was 70% and 75%, the “Activity of expanded weed killing spectrum, Alligator alternanthera” value (“Activity … Alligator alternanthera” for short) [3] was 60% and the “Activity of expanded weed killing spectrum, Cayenne pepper” value (“Activity … Cayenne pepper” for short) [3] was 70% and 75%. For the same compound, the “Activity of expanded weed killing spectrum, Cucumis sativus” value (“Activity … Cucumis sativus” below) [3] was 40% and 50%, the “Activity of expanded weed killing spectrum, Pakchoi” value [3] was 85% and the “Activity of expanded weed killing spectrum, Pigweed” value [3] was 85%. The “Activity of expanded weed killing spectrum, Tomato” value [3] was 70% and 75%, the pest or weed control at 37.5 g/ha (Eclipta prostrata; [8]) was 50% and the pest or weed control at 75 g/ha (Eclipta prostrata; [8]) was 85%. For the same compound, the pest or weed control at 150 g/ha (Eclipta prostrata; [8]) was 70%, the “weed clearing activity, Eclipta prostrata Postemergence (※)” value (Eclipta prostrata; in vivo) was 90^※ % and the “weed clearing activity, Eclipta prostrata Postemergence, value in parentheses” value (Eclipta prostrata; in vivo) was 85(70) %. It also gave a pest or weed control at 37.5 g/ha (Amaranthus retroflexus; [9]) of 70%, a pest or weed control at 75 g/ha (Amaranthus retroflexus; [9]) of 90% and a pest or weed control at 150 g/ha (Amaranthus retroflexus; [9]) of 80%. For the same compound, the “weed clearing activity, Amaranthus retroflexus Postemergence (※)” value (Amaranthus retroflexus; in vivo) was 100^※ %, the “weed clearing activity, Amaranthus retroflexus Postemergence, value in parentheses” value (Amaranthus retroflexus; in vivo) was 90(70) % and the “Inhibitory activity on the crops, Rape” value (rape [4]) was 40. For the same compound, the pest or weed control at 10 µg/g (cockspur grass; [10]) was 100%, the pest or weed control at 100 µg/g (cockspur grass; [10]) was 100% and the pest or weed control at 10 µg/g (cockspur grass; [11]) was 55%. For the same compound, the pest or weed control at 100 µg/g (cockspur grass; [11]) was 57%.

`Cc1cc(Cl)ccc1OCC(=O)OC(C)P1(=O)OCC(C)(C)CO1` (stereo not drawn) [Compound 34, 2-(2-methyl-4-chlorophenoxyethylacyloxy)(methyl)methyl-5,5-dimethyl-1,3,2-dioxaphosphorinan-2-one phosphonate] showed an inhibition at 100 µg/mL (Sorghum; [12]) of 100%, an inhibition at 100 µg/mL (Sorghum; [13]) of 100% and an inhibition at 100 µg/mL (Wheat [5]; [14]) of 90%. For the same compound, the inhibition at 100 µg/mL (Wheat [5]; [15]) was 60%, the inhibition at 100 µg/mL (Cucumber; [16]) was 100% and the inhibition at 100 µg/mL (Cucumber; [17]) was 100%. The pest or weed control at 150 g/ha (Capsella bursa-pastoris) was 90%, the inhibition at 100 µg/mL (rape [2]; [18]) was 100% and the inhibition at 100 µg/mL (rape [2]; [19]) was 100%. The “Activity … Alligator alternanthera” value [3] was 60% and 70%, the “Activity of expanded weed killing spectrum, Ammania” value [3] was 50% and 60% and the “Activity of expanded weed killing spectrum, Cabbage” value [3] was 70%. For the same compound, the “Activity of expanded weed killing spectrum, Capsella bursa-pastoris” value [3] was 85%, the “Activity … Cayenne pepper” value [3] was 70% and the “Activity … Cucumis sativus” value [3] was 60% and 70%. The “Activity of expanded weed killing spectrum, Monochoria” value [3] was 30% and 60%, the “Activity of expanded weed killing spectrum, Pakchoi” value [3] was 70% and the “Activity of expanded weed killing spectrum, Pigweed” value [3] was 70% and 75%. The “Activity of expanded weed killing spectrum, Rape” value [3] was 85%, the “Activity of expanded weed killing spectrum, Rumex acetosa” value [3] was 70% and 75% and the “Activity of expanded weed killing spectrum, Tomato” value [3] was 60% and 70%. The “Activity of expanded weed killing spectrum, Vicia cracca” value [3] was 70%, the pest or weed control at 150 g/ha (Eclipta prostrata; [8]) was 80% and the “Weed clearing activity, Eclipta prostrata, Postemergence” value (Eclipta prostrata; in vivo) was 85%. It also gave a pest or weed control at 150 g/ha (Amaranthus retroflexus; [9]) of 90%, an inhibition at 100 µg/mL (Radish; [20]) of 100% and an inhibition at 100 µg/mL (Radish; [21]) of 100%. It also gave a pest or weed control at 150 g/ha (Abutilon theophrasti) of 75%, an inhibition at 100 µg/mL (cockspur grass; [22]) of 70% and an inhibition at 100 µg/mL (cockspur grass; [23]) of 80%.

Work on `CC(OC(=O)COc1ccc(F)cc1Cl)P1(=O)OCC(C)(C)CO1` (stereo not drawn) [Compound 37, 2-(2-chloro-4-fluorphenoxyethylacyloxy)(methyl)methyl-5,5-dimethyl-1,3,2-dioxaphosphorinan-2-one phosphonate] yielded an inhibition at 100 µg/mL (Sorghum; [12]) of 0%, an inhibition at 100 µg/mL (Sorghum; [13]) of 0% and an inhibition at 100 µg/mL (Wheat [5]; [14]) of 60%. The inhibition at 100 µg/mL (Wheat [5]; [15]) was 30%, the inhibition at 100 µg/mL (Cucumber; [16]) was 60% and the inhibition at 100 µg/mL (Cucumber; [17]) was 30%. For the same compound, the pest or weed control at 150 g/ha (Capsella bursa-pastoris) was 95%, the inhibition at 100 µg/mL (rape [2]; [18]) was 100% and the inhibition at 100 µg/mL (rape [2]; [19]) was 100%. For the same compound, the “Activity … Alligator alternanthera” value [3] was 60%, the “Activity of expanded weed killing spectrum, Ammania” value [3] was 60% and the “Activity of expanded weed killing spectrum, Cabbage” value [3] was 70%. For the same compound, the “Activity … Cayenne pepper” value [3] was 60% and 75%, the “Activity … Cucumis sativus” value [3] was 60% and 70% and the “Activity of expanded weed killing spectrum, Eclipta prostrata” value [3] was 60%. The “Activity of expanded weed killing spectrum, Monochoria” value [3] was 50%, the “Activity of expanded weed killing spectrum, Rape” value [3] was 70% and 75% and the “Activity of expanded weed killing spectrum, Rumex acetosa” value [3] was 70% and 75%. The “Activity of expanded weed killing spectrum, Vicia cracca” value [3] was 70%, the pest or weed control at 150 g/ha (Eclipta prostrata; [8]) was 85% and the “Weed clearing activity, Eclipta prostrata, Postemergence” value (Eclipta prostrata; in vivo) was 60% and 85%. The pest or weed control at 150 g/ha (Amaranthus retroflexus; [9]) was 90%, the “Weed clearing activity, Amaranthus retroflexus, Postemergence” value (Amaranthus retroflexus; in vivo) was 60% and the inhibition at 100 µg/mL (Radish; [20]) was 90%. For the same compound, the inhibition at 100 µg/mL (Radish; [21]) was 30%, the pest or weed control at 150 g/ha (Abutilon theophrasti) was 90% and the “Weed clearing activity, Abutilon theophrasti, Postemergence” value (Abutilon theophrasti; in vivo) was 70%. For the same compound, the inhibition at 100 µg/mL (cockspur grass; [22]) was 0% and the inhibition at 100 µg/mL (cockspur grass; [23]) was 0%.

Source: patent US9029542B2 (priority 2011, dated 2015)
